In brackets after ≈: the same amount, converted by molar mass.
Tests used:
[1] = system: E. coli ATCC25922; assay: MIC broth microdilution, E. coli ATCC25922; format: cell-based, Escherichia coli; conditions: Escherichia coli, ATCC25922; not MDR; overnight incubation
Experimental: (§1) Antibacterial activity: The compounds were tested for the minimum inhibitory concentrations (MIC), which is the lowest concentration of a chemical required to inhibit visible microbial growth following overnight incubation. MIC values were determined using broth microdilution method according to the Clinical and Laboratory Standards Institute guidelines (CLSI, 2015, M07-A10). Mueller-Hinton broth was used as a culture medium in all the experiments. Exponentially growing bacterial cells were prepared in Mueller-Hinton broth at a concentration of approximately 5×10^5 CFU/mL. Two-fold serial dilutions of the test compound (8 concentrations ranged between 100-0.78 μg/mL) were tested. […] In each experiment, solvent (DMSO) was used as a negative control, un-treated control (composing of bacteria in Mueller-Hinton broth) was used as a growth control, blank (culture media alone) was used as sterility control. The 96-well microplate with the test compounds was incubated overnight at 37° C. Turbidity in wells indicated bacterial growth.
(§2) The compounds were tested on six MDR Gram-positive bacteria including three clinical isolates of methicillin-resistant Staphylococcus aureus (MRSA-1, MRSA-2 and MRSA-3) and three reference MRSA strains (ATCC33591, ATCC33592 and ATCC700699). They were also tested on three MDR Gram-negative bacteria including New Delhi metallo-beta-lactamase (NDM-1) positive, carbapenem-resistant E. coli (ATCC BAA2469), extended-spectrum beta-lactamase (ESBL) producing, colistin-resistant E. coli (CDC-AR-0346) and carbapenem-resistant Acinetobacter baumannii (ATCC BAA1605), in addition to two non-MDR bacteria from the same species, namely E. coli (ATCC 25922) Acinetobacter baumannii (ATCC 19606).

[2] = system: E. coli ATCC BAA2469 (NDM-1 carbapenem-resistant); assay: MIC broth microdilution, E. coli ATCC BAA2469; format: cell-based, Escherichia coli; conditions: overnight incubation; for MIC: Escherichia coli, ATCCBAA2469, MDR
Experimental: as §1, §2

[3] = system: E. coli CDC-AR-0346 (ESBL, colistin resistant); assay: MIC broth microdilution, E. coli CDC-AR-0346; format: cell-based, Escherichia coli; conditions: Escherichia coli; MDR; overnight incubation
Experimental: as §1, §2

[4] = system: Acinetobacter baumannii ATCC 19606; assay: MIC broth microdilution, A. baumannii ATCC 19606; format: cell-based; conditions: Acinetobacter baumannii, ATCC19606; not MDR; overnight incubation
Experimental: as §1, §2

[5] = system: Acinetobacter baumannii ATCC BAA1605 (carbapenem-resistant); assay: MIC broth microdilution, A. baumannii ATCC BAA1605; format: cell-based; conditions: overnight incubation; for MIC: Acinetobacter baumannii, ATCCBAA1605, MDR; for MIC Acinetobacter baumannii ATCC BAA1605 (carbapenem-resistant): MDR
Experimental: as §1, §2

[6] = system: HCT-116; assay: MTT cell viability, HCT-116; format: cell-based; conditions: Homo sapiens, colon cancer, 48 h of drug treatment, average of three experiments
Excerpt: (§3) Cell culture: In this study five different cancer cell lines were used, human lung carcinoma (A549), human breast adenoma (MCF-7), Cervical carcinoma (Hela), hepatocellular carcinoma (Hep3B), and colorectal adenocarcinoma (HCT-116). These cells were obtained from the European Collection of Cell Cultures (ECACC, UK). Hep3B cells were maintained in Dulbecco's Modified Eagle Medium (DMEM: Sigma-Aldrich), and the four other cell lines were maintained in Roswell Park Memorial Institute medium (RPMI, Sigma-Aldrich, St. Louis, Mo., USA), which was supplemented with 10% fetal bovine serum (FBS, Sigma-Aldrich) and 1% penicillin/streptomycin (Sigma-Aldrich). Cells were incubated all the time at 37° C. in a humidified atmosphere of 5% CO2. Cell viability studies: Cell viability was assessed using the MTT assay as described before. In brief, all cancer cell lines were seeded at a density of 4×10^4/well in 96 well flat-bottom plates. After 24 h from seeding, cells were treated with the synthesized compounds and left for an incubation period of 48 h. Upon reaching the indicated time point, the media was removed and replaced with 200 μL fresh media containing 0.5 mg/mL of MTT tetrazolium dye (Sigma-Aldrich). Cells were then incubated with MTT solution for 2 h at 37° C. The resultant formazan crystals were dissolved in 200 μl/well of DMSO and absorbance was measured at 570 nm using a microplate reader (Thermo Scientific).

[7] = system: HELA; assay: MTT cell viability, HELA; format: cell-based; conditions: Homo sapiens, cervical cancer, 48 h of drug treatment, average of three experiments
Excerpt: as §3

[8] = system: A549; assay: MTT cell viability, A549; format: cell-based; conditions: Homo sapiens, lung cancer, 48 h of drug treatment, average of three experiments
Excerpt: as §3

[9] = system: HEP3B; assay: MTT cell viability, HEP3B; format: cell-based; conditions: Homo sapiens, liver cancer, 48 h of drug treatment, average of three experiments
Excerpt: as §3

[10] = system: MCF-7; assay: MTT cell viability, MCF-7; format: cell-based; conditions: Homo sapiens, MCF7; breast cancer; 48 h of drug treatment; average of three experiments
Excerpt: as §3

[11] = system: MRSA-1 (clinical isolate); assay: MIC broth microdilution, MRSA-1; format: cell-based, Staphylococcus aureus; conditions: Staphylococcus aureus, MRSA; overnight incubation, Mueller-Hinton broth; read-out: MIC MRSA-1 (clinical isolate)
Experimental: as §1, §2

[12] = system: MRSA-2 (clinical isolate); assay: MIC broth microdilution, MRSA-2; format: cell-based, Staphylococcus aureus; conditions: Staphylococcus aureus, MRSA; overnight incubation, Mueller-Hinton broth; read-out: MIC MRSA-2 (clinical isolate)
Experimental: as §1, §2

[13] = system: MRSA-3 (clinical isolate); assay: MIC broth microdilution, MRSA-3; format: cell-based, Staphylococcus aureus; conditions: Staphylococcus aureus, MRSA; overnight incubation, Mueller-Hinton broth; read-out: MIC MRSA-3 (clinical isolate)
Experimental: as §1, §2

[14] = system: MRSA-ATCC33591; assay: MIC broth microdilution, MRSA ATCC33591; format: cell-based, Staphylococcus aureus; conditions: Staphylococcus aureus; overnight incubation, Mueller-Hinton broth; read-out: MIC MRSA-ATCC33591
Experimental: as §1, §2

[15] = system: MRSA-ATCC33592; assay: MIC broth microdilution, MRSA ATCC33592; format: cell-based, Staphylococcus aureus; conditions: Staphylococcus aureus; overnight incubation, Mueller-Hinton broth; read-out: MIC MRSA-ATCC33592
Experimental: as §1, §2

[16] = system: MRSA-ATCC700699 (VISA); assay: MIC broth microdilution, MRSA ATCC700699 (VISA); format: cell-based, Staphylococcus aureus; conditions: Staphylococcus aureus; strain intermediately resistant to vancomycin; overnight incubation; read-out: MIC MRSA-ATCC700699 (VISA)
Experimental: as §1, §2

[17] = system: normal epithelial cells (HMEC); assay: Cell viability, normal epithelial cells; format: cell-based; conditions: Homo sapiens, 48 h of drug treatment, average of three experiments
Experimental: Cell viability studies: Cell viability was assessed using the MTT assay as described before. In brief, all cancer cell lines were seeded at a density of 4×10^4/well in 96 well flat-bottom plates. After 24 h from seeding, cells were treated with the synthesized compounds and left for an incubation period of 48 h. Upon reaching the indicated time point, the media was removed and replaced with 200 μL fresh media containing 0.5 mg/mL of MTT tetrazolium dye (Sigma-Aldrich). Cells were then incubated with MTT solution for 2 h at 37° C. The resultant formazan crystals were dissolved in 200 μl/well of DMSO and absorbance was measured at 570 nm using a microplate reader (Thermo Scientific).

MIC [1] [µg/mL]	MIC [2] [µg/mL]	MIC [3] [µg/mL]	MIC [4] [µg/mL]	MIC [5] [µg/mL]	MIC Acinetobacter baumannii ATCC BAA1605 (carbapenem-resistant) [5] [µg/mL]	IC50 [6] [µM]	IC50 [7] [µM]	IC50 [8] [µM]	IC50 [9] [µM]	IC50 [10] [µM]	MIC [11] [µg/mL]	MIC [12] [µg/mL]	MIC [13] [µg/mL]	MIC [14] [µg/mL]	MIC [15] [µg/mL]	MIC [16] [µg/mL]	MIC E. coli ATCC BAA2469 (NDM-1 carbapenem-resistant) ([2]; MDR) [µg/mL]	Compound	IC50 [17] [µM]
0.03 (≈ 0.0659 µM)	250 (≈ 549 µM)	> 1000	20 (≈ 43.9 µM)	≥ 1000	1000 (≈ 2200 µM)													CO/N=C(\C(=O)N[C@@H]1C(=O)N2C(C(=O)O)=C(COC(C)=O)CS[C@H]12)c1csc(N)n1 [Cefotaxime]	
0.03 (≈ 0.0541 µM)	500 (≈ 902 µM)	> 1000	20 (≈ 36.1 µM)	≥ 1000	>1000													CO/N=C(\C(=O)N[C@@H]1C(=O)N2C(C(=O)O)=C(CSc3nc(=O)c(=O)[nH]n3C)CS[C@H]12)c1csc(N)n1 [Ceftriaxone]	
						6.43 ± 0.03	> 10	10.25 ± 0.08	8 ± 0.07	6.22 ± 0.16								Fc1ccc(N/N=C2\C=C[C@@]3(CC2)CC[C@@H]2NCCc4c2n3c2ccccc42)cc1 [Compound 1b]	
						2.65 ± 0.05	5.3 ± 0.35	3.9 ± 0.04	4.21 ± 0.06	2.75 ± 0.06	3.12 (≈ 6.77 µM)	3.12 (≈ 6.77 µM)	3.12 (≈ 6.77 µM)	6.25 (≈ 13.5 µM)	6.25 (≈ 13.5 µM)	6.25 (≈ 13.5 µM)		Brc1ccc(N/N=C2\C=C[C@@]3(CC2)CC[C@@H]2NCCc4c2n3c2ccccc42)cc1 [Compound 1c]	
12.5 (≈ 26.8 µM)	6.25 to 12.5 (≈ 13.4 to 26.8 µM)	25 (≈ 53.6 µM)	6.25 (≈ 13.4 µM)	12.5 (≈ 26.8 µM)		5.177 ± 0.02	4.08 ± 0.12	8.607 ± 0.02	5.132 ± 0.04	5.61 ± 0.08	1.56 (≈ 3.34 µM)	3.12 (≈ 6.7 µM)	3.12 (≈ 6.7 µM)	3.12 (≈ 6.7 µM)	3.12 (≈ 6.7 µM)	1.56 (≈ 3.34 µM)	12.5 (≈ 26.8 µM)	Oc1ccc2c(c1)c1c3n2[C@@]2(C=C/C(=N\Nc4ccc(C(F)(F)F)cc4)CC2)CC[C@@H]3NCC1 [Compound 1i]	12.7 ± 0.05
						2.3 ± 0.04	4.601 ± 0.03	5.61 ± 0.12	2.88 ± 0.14	3 ± 2.4	1.56 (≈ 3.25 µM)	3.12 (≈ 6.5 µM)	3.12 (≈ 6.5 µM)	3.12 (≈ 6.5 µM)	3.12 (≈ 6.5 µM)	3.12 (≈ 6.5 µM)		COc1ccc2c3c4n(c2c1)[C@@]1(C=C/C(=N\Nc2ccc(C(F)(F)F)cc2)CC1)CC[C@@H]4NCC3 [Compound 1j]	10.77 ± 0.05

— patent US11286258B2, “Nature-inspired anticancer and antibacterial motifs and pharmaceutical composition thereof” (University of Sharjah, priority 2020, dated 2022)
